Assays:
[1] = Isoelectric focusing (IEF); type: physicochemical; conditions: determined by isoelectric focussing
Procedure: Isoelectric focusing (IEF) was carried out with a BioRad IEF cell system using Biorad IEF strips (11 cm, pH range from 3 to 10). The system was cooled to 20° C. Calibration was performed with 80 μg of Sigma IEF mix 3.6-9.3 dissolved in 200 μl water containing 0.2% Bio-Lyte® 3/10 and 0.1% NP40. Twenty five μg of each peptide was dissolved in 200 μl water containing 0.2% Bio-Lyte® 3/10,0.1% NP40, and 10 mM DTT.IEF gels were placed in the chamber containing the peptide solution. The IEF gels were initially rehydrated for 12 hours at 50 V. Focusing of the peptides was achieved by application of a linear voltage gradient starting at 250 V and reaching 8000 V in 2.5 hours. The gels were then exposed to 8000 V for 4.5 hours. Subsequently, the IEF gels were stained in the BioRad IEF gel staining solution and destained in a mixture of 10% acetic acid, 40% methanol, and 50% water.

rCRFR1 [2] = molecular target: T1, rCRFR1 (Rattus norvegicus, UniProt P35353)
T1 sequence (P35353 24-415): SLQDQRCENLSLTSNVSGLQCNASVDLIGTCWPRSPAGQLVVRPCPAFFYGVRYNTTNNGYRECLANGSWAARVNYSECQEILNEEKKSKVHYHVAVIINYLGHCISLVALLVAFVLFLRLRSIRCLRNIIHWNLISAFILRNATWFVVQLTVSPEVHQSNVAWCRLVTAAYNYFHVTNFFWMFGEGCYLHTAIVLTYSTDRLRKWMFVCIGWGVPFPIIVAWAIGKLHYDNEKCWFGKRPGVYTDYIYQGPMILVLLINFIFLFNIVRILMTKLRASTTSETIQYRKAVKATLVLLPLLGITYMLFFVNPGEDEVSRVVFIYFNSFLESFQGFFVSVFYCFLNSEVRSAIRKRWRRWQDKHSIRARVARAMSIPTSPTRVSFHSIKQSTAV

mCRFR2β = molecular target: T2, mCRFR2β (Mus musculus, UniProt Q60748); experiment: Intracellular cAMP accumulation in mCRFR2β-HEK 293 cells; type: cell-based; conditions: for Rel. intrinsic activity mCRFR2β: cAMP after 1 μM antagonist relative to Svg stimulation, 95% CI in parentheses; for Rel. potency of antagonist mCRFR2β: inhibition of cAMP accumulation after 1 nM Svg
T2 construct: expressed in transfected cells
Procedure: (§1) The SPA assay for rCRFR1 and rCRFR2β was performed in 96-well microtiter plates. […] After 1 hour shaking 250 mg wheat germ agglutinin beads per well were added and the plates were counted in a microbeta scintillation counter (Wallac). cAMP accumulation was measured using the SPA based Biotrack assay (Amersham).

rCRFR1 [3] = molecular target: T1, rCRFR1; experiment: Competitive binding to rCRFR1, SPA on HEK-293 membrane fractions with [125I-Tyr0]h/rCRF; conditions: binding affinities CRFR1 vs CRFR2
Procedure: as §1
Binding of CRF-like peptides to rCRFBP was carried out with an SPA assay in nickel-chelate-coated 96-well microtiter plates (Flash Plate PLUS™, NEN), which bound rCRFBP tagged with a C-terminal His6 sequence (rCRFBP-His6). The scintillator beads carrying the Ni 2+ ions for binding of the His tag were located at the inner surface of the wells of this microtiterplate. […] The plates were sealed and incubated for four hours at room temperature. The radioactivities in the microtiterplates were counted in a Wallac 1450 Microbeta scintillation counter by detection of the light emitted from the scintillator beads. In both SPA systems the detection of the radioligand.8 depended on its proximity to the beads containing the scintillator. […] The major portion of counted radioactivity (>70%) represented specific binding that was because of radiolabeled ligand specifically bound to CRFBP or CRFR. […] Binding data were analyzed using the Prism computer program (GraphPad Software, San Diego).

C57BL/6J mice = experiment: Elevated plus-maze test, icv injection, oCRF-induced behavior; type: in vivo, mouse
Procedure: The antagonists and agonists were injected icv 30 and 15 min, respectively, before exposure to the elevated plus-maze for 5 min.
Ten min later the animals received 90 ng oCRF, and after 30 min, their behavior was recorded in the elevated plus maze test.
Alternatively, the elevated plus-maze behavior of C57BL/6J mice cannulated in the lateral ventricles (Radulovic, J., Rühmann, A., Liepold, T & Spiess, J. (1999) J.Neurosci. 19, 5016-5025) was investigated 15 min after injection of ovine CRF (oCRF) in the elevated plus-maze test (Radulovic, J., Kammermeier, J. & Spiess, J. (1998) Behav.Brain Res. 95, 179-189.).Peptide concentrations were determined by amino acid analysis (Radulovic, J., Rühmann, A., Liepold, T. & Spiess, J. (1999) J.Neurosci. 19, 5016-5025). CRF antagonists in aCSF as vehicle or vehicle alone were injected 30 min prior to oCRF administration. The behavior of the mice was recorded by a video camera connected to a PC and analyzed by the software VideoMot 2 (Technical &Scientific Equipment). The time spent, distance crossed, and number of entries in the open arms, closed arms, and center were recorded. The cannular placement was confirmed for each mouse by histological examination of the brains after methylene blue injection (Radulovic, J., Rühmann, A., Liepold, T. & Spiess, J. (1999) J.Neurosci. 19, 5016-5025). The behavioral data were analyzed by t tests or ANOVA followed by post hoc Scheffe's test for multiple comparisons. Data are presented as mean±SEM. The shift of preference from the open to the closed arms is interpreted as an increase of anxiety-like behavior. Locomotor activity is determined with this assay by the distance traveled.

T2 sequence (Q60748 1-431 isoform Q60748-2): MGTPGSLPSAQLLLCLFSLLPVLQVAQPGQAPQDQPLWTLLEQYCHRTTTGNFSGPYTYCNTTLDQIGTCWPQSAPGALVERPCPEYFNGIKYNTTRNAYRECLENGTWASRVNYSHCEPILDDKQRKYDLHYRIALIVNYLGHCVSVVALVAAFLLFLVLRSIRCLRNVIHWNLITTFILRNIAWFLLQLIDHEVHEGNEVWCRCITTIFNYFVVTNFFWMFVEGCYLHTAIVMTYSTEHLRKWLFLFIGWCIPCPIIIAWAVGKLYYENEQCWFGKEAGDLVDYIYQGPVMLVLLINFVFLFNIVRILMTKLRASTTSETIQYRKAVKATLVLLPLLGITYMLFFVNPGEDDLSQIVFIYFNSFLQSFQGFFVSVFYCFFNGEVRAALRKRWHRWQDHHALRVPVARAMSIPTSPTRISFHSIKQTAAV

**Q.** For CC[C@H](C)[C@H](NC(=O)[C@@H](NC(=O)[C@H](CC(=O)O)NC(=O)[C@H](CC(C)C)NC(=O)[C@H](CC(C)C)NC(=O)[C@H](CC(C)C)NC(=O)[C@H](CCCNC(=N)N)NC(=O)[C@H](CC(N)=O)NC(=O)[C@H](CC(N)=O)NC(=O)[C@H](C)NC(=O)[C@H](C)NC(=O)[C@H](CCC(N)=O)NC(=O)[C@H](CCC(N)=O)NC(=O)[C@H](CCCCN)NC(=O)[C@H](CCC(=O)O)NC(=O)[C@H](CCCCN)NC(=O)[C@H](CCC(=O)O)NC(=O)[C@H](CCC(N)=O)NC(=O)[C@H](CCCCN)NC(=O)[C@H](CCC(=O)O)NC(=O)[C@@H](NC(=O)[C@H](CCC(=O)O)NC(=O)[C@@H](NC(=O)[C@H](CCSC)NC(=O)[C@H](CCCCN)NC(=O)[C@H](CCCNC(=N)N)NC(=O)[C@H](CC(C)C)NC(=O)[C@H](CC(C)C)NC(=O)[C@H](CCC(=O)O)NC(=O)[C@H](CC(C)C)NC(=O)[C@H](CO)NC(=O)[C@H](CC(C)C)NC(=O)[C@H](CC(=O)O)NC(=O)[C@@H](NC(=O)[C@H](CO)NC(=O)[C@@H](NC(=O)[C@@H]1CCCN1C(=O)[C@@H]1CCCN1C(=O)CNC(=O)[C@@H]1CCC(=O)N1)[C@@H](C)CC)[C@@H](C)CC)[C@@H](C)CC)[C@@H](C)CC)[C@@H](C)O)C(N)=O [Svg, sauvagine], which Isoelectric point [1] is on record?
**A.** Its Isoelectric point is 5.1.

**Q.** What does the source list for anti-sauvagine-30 [aSvg-30]?
**A.** Emax (rCRFR1 [2]): 6.5%; Rel. intrinsic activity mCRFR2β (mCRFR2β): 1.0 (0.9-1.1) %; Rel. potency of antagonist mCRFR2β (mCRFR2β): 99 (98-99) %

**Q.** With h/rCRF as the compound, how does the “selectivity favoring CRFR1 (over CRFR2), factor” value (rCRFR1 [3]) read?
**A.** Its value is 30.

**Q.** With oCRF as the compound, how does the “effect on oCRF-elicited anxious behavior in elevated plus maze (Example 9)” value (C57BL/6J mice; 220 ng [E11]Ast icv, 10 min later 90 ng oCRF, threefold molar excess) read?
**A.** The value was “elicited anxious behavior”.

**Q.** What about the “anxiety-like behavior (open arm visits, % time in open arms)” value (C57BL/6J mice; icv 20 pmol (90 ng) oCRF) of the same compound?
**A.** Its value is “enhanced”.

**Q.** And the “locomotion (total distance crossed) in elevated plus-maze” value (C57BL/6J mice; icv 20 pmol (90 ng) oCRF)?
**A.** The value was “markedly decreased”.

**Q.** What about the “behavior effects at higher agonist dose” value (C57BL/6J mice; icv 35 pmol (170 ng) oCRF) of the same compound?
**A.** The value was “significantly enhanced”.

**Q.** With α-helical CRF^9-41 [α-hel-CRF^9-41] as the compound, how does the Emax (rCRFR1 [2]) read?
**A.** Its Emax is 19%.

**Q.** What about the “change of oCRF-induced behavioral effects in plus-maze test” value (C57BL/6J mice; 120 pmol antagonist icv before 35 pmol oCRF) of the same compound?
**A.** The value was “no significant change”.

**Q.** And the “Rel. intrinsic activity mCRFR2β” value (mCRFR2β)?
**A.** The value was 1.4 (1.2-1.5) %.

**Q.** What about the “Rel. potency of antagonist mCRFR2β” value (mCRFR2β) of the same compound?
**A.** The value was 97 (96-97) %.

Source: patent publication US20040049009A1, “Methods for improving the antagonistic/agonistic properties of peptidic antagonists/agonists of the corticotropin-releasing factor receptor (crfr)” (priority 2000, published 2004)
